Entries after “also recorded” stand apart in the source; their conditions may differ.
System: CCR6
Experiment: Inhibition of CCL18-induced CCR6 down-regulation on mononuclear cells (flow cytometry)
Assay type: cell-based
Conditions: freshly isolated human lymphocytes/PBMNC, 20 minutes, FACS; for CCL18 induced down-regulation of CCR6 expression: CCL18 10 ng/ml plus inhibitor 100 ng/ml
Experimental: Freshly isolated mononuclear cells were incubated for 20 minutes with 10 ng/ml of CCL18, 100ng/ml of the inhibitor peptide PS-AU-105 (polypeptide according to SEQ ID NO.:1), a combination of both or were left untreated. The incubation was performed in RPMI1640 with 10% fetal calf serum and 100 U/ml Streptomycin/Penicillin at 37°C. After the incubation, the cells were centrifugated and the supernatant was discarded. The cells were fixed with 4% paraformaldehyde for 5 minutes on ice and washed twice in PBS containing 1% FCS. After fixation the cells were stained using a fluorescein-conjugated antibody against CCR6 (R&D systems, Wiesbaden, FRG) and analyzed by flow cytometry (FACScalibur and Quantiquest; both Beckon Dickinson, Franklin Lakes, USA).
This CCL18 induced redaction of CCR6 expression is diminished in the presence of the inhibitor peptide PS-AU-105 (polypeptide according to SEQ ID No.: 1).

“PS-AU-105: inhibitor peptide, polypeptide according to SEQ ID NO.:1; 29 amino acids, artificial, peptide inhibitor of CCR6 (EDCCLVYTSWQIHPKFIVDYSETSPQCPK)” was tested, and the “CCL18 induced down-regulation of CCR6 expression” value was “diminished; also recorded: fails to down-regulate the CCR6^+ sub-population”, the “CCL18 induced down-regulation of CCR6 expression” value (listed as PS-AU-1015) was “this down-regulation docs not occur” and the “CCR6 expression, inhibitor only” value (inhibitor 100 ng/ml alone) was “no effect”.

Reference: EP2399598B1, “Blockade of CCL18 signaling via CCR6 as a therapeutic option in fibrotic diseases and cancer” (Universitätsklinikum Freiburg, priority 2010, dated 2014)
